Results reported in PubChem BioAssay AID179 (DTP/NCI, 2004).
Active and inactive are the calls of the source.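 Rule for the calls: active = compounds giving half or more protection of infected cells from virus-caused growth loss, again on retest; inactive = the rest.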

Test system: CEM cells HIV-1 protection, formazan growth assay
Assay: NCI AIDS Antiviral Assay
Details: for IC50: measured here: growth of uninfected CEM cells
In short: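 CEM (human) cells, HIV-1 infected vs uninfected, 5-point dosing, formazan growth read-out. Retest threshold 50% protection.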

SMILES: CCC[CH2][Sn]([CH2]CCC)([S]CCS(=O)(=O)O)[S]CCS(=O)(=O)O (tested in a mixture with another compound)
- EC50: > 200 µM
- IC50: > 200 µM

SMILES: CC1(C)[C@H]2Cc3cc4nc5ccccn5c4cc3[C@@H]1C2
- EC50: > 200 µM
- IC50: 24 µM

SMILES: Cc1c(Cl)cccc1Nc1ncccc1C(=O)O
- EC50: > 200 µM
- IC50: > 100 µM

SMILES: CCCCC1OC2O[C@]3(C)CCC4C(C)CCC([C@H]1C)C24OO3 (stereo not given in full)
- EC50: > 95.5 µM
- IC50: 22.4 µM

SMILES: Cn1c2c3ccccc3nc-2cc2ccccc21
- EC50: > 174 µM
- IC50: 0.316 µM

SMILES: Cc1ccc(C)c(N2C/C(=N\NC(=O)CC#N)C(c3nc4ccccc4s3)C(=O)C2=O)c1 (stereo not given)
- outcome: inactive

SMILES: Cc1nc(N)nc(N)c1N1CCN(c2ccc(C(=O)NC(CCC(=O)O)C(=O)O)cc2)CC1 (stereo not given)
- EC50: > 200 µM
- IC50: 0.0631 µM

SMILES: COC(=O)C1CCC(=O)N1CN(C(C)=O)c1cccc(O)c1 (stereo not given)
- EC50: > 200 µM
- IC50: > 200 µM

SMILES: c1scc2c1COCCOCCOCCOCc1cscc1COCCOCCOCCOC2
- EC50: > 347 µM
- IC50: > 347 µM

SMILES: COc1cccc2c1C(c1ccc3ccccc3c1)OC2=O (stereo not given)
- EC50: > 46.8 µM
- IC50: 25.1 µM

SMILES: CCSc1cc(=O)n(C)c(=O)n1C
- outcome: inactive

SMILES: CCCN=C(C(C)=O)N(C)C
- EC50: > 1580 µM
- IC50: 871 µM

SMILES: CCN(CC)CCC(=O)NC1c2ccc(Cl)cc2Oc2c(C)cccc21 (stereo not given)
- EC50: > 200 µM
- IC50: 9.55 µM

SMILES: COc1ccccc1NCC(=O)Nn1c(C)nc2ccc(S(=O)(=O)Nc3ccccc3OC)cc2c1=O
- EC50: > 200 µM
- IC50: 148 µM

SMILES: CC(=O)OC(C)(C)/C=C/C(=O)[C@](C)(O)[C@H]1[C@H](O)C[C@@]2(C)[C@@H]3CC=C4[C@@H](C[C@H](O)C(=O)C4(C)C)[C@]3(C)C(=O)C[C@]12C
- EC50: > 0.2 µM
- IC50: 0.00955 µM

SMILES: C/C(CC(O)(C(F)(F)F)C(F)(F)F)=N/Nc1ccc([N+](=O)[O-])cc1[N+](=O)[O-]
- EC50: > 200 µM
- IC50: 1.41 µM

SMILES: CCCCCCCCCCCCCCCCOCC(COC1OC(COC(C)=O)C(OC(C)=O)C(OC(C)=O)C1OC(C)=O)OCCCCCCCCCCCCCCCC (stereo not given)
- EC50: > 29.5 µM
- IC50: > 29.5 µM

SMILES: O=C(Nc1nccs1)Nc1cc(C(F)(F)F)ccc1Cl
- EC50: > 200 µM
- IC50: > 200 µM

SMILES: COC(=O)c1ccccc1C1CN=NC12Cc1c(C)cccc1C2=O (stereo not given)
- EC50: > 200 µM
- IC50: 151 µM

SMILES: O=C(/C=C/c1ccccc1)CCC1C(=O)NC(=S)NC1=O
- EC50: > 85.1 µM
- IC50: > 85.1 µM

SMILES: CC1(C)C(=O)N(c2ccccc2)C(=O)N1c1nc2ccccc2[nH]1
- EC50: > 155 µM
- IC50: > 155 µM

SMILES: O=C1Oc2ccccc2C(=O)/C1=C/N1C(=O)/C(=C/c2ccccc2)NC1=S
- EC50: > 200 µM
- IC50: > 100 µM

SMILES: Fc1cccc(C2SCc3nc4ncccc4n32)c1 (stereo not given)
- EC50: > 132 µM
- IC50: > 132 µM

SMILES: O=C1c2cccc(NCCNCCO)c2C(=O)c2cccc(NCCNCCO)c21
- outcome: inactive

SMILES: COC(=O)c1nc(-c2ccc3c(n2)C(=O)C(N)=C(OC)C3=O)c(N)c(-c2ccc(OC)c(OC)c2O)c1C
- EC50: > 10 µM
- IC50: 1.66 µM

SMILES: O=[N+]([O-])c1ccc(COc2cccc3cccnc23)cc1
- EC50: > 200 µM
- IC50: 2.14 µM

SMILES: O=C(Cc1ccccc1)NN1C(=O)/C(=C\c2cccc(O)c2)SC1=Nc1ccccc1
- EC50: > 158 µM
- IC50: 102 µM

SMILES: CC1(O)OC(=O)c2ccc3ccccc3c21 (stereo not given)
- EC50: > 398 µM
- IC50: > 398 µM

SMILES: CC[C@](O)(C(=O)O)c1cc2n(c(=O)c1CO)Cc1cc3ccccc3nc1-2
- EC50: > 0.1 µM
- IC50: 0.012 µM

SMILES: Cc1cc2c(C(C)C)c(O)c(O)c(C=Nc3ccc(-c4ccccc4)cc3)c2c(O)c1-c1c(C)cc2c(C(C)C)c(O)c(O)c(C=Nc3ccc(-c4ccccc4)cc3)c2c1O
- EC50: 1.62 µM
- IC50: > 200 µM

SMILES: CC(C)[Si](CC1=CCCCC12C(=O)N(COCC[Si](C)(C)C)c1ccccc12)(C(C)C)C(C)C (stereo not given)
- EC50: > 200 µM
- IC50: > 200 µM

SMILES: COC1(OC)C2(Cl)C(Cl)=C(Cl)C1(Cl)C1c3ccc(C(C)=O)c4cccc(c34)C12 (stereo not given)
- outcome: inactive

SMILES: CC(NC(=O)OC(C)(C)C)C(=O)NC(Cc1ccccc1)C(=O)NCC(=O)Oc1c(Cl)c(Cl)c(Cl)c(Cl)c1Cl (stereo not given)
- EC50: > 200 µM
- IC50: 4.27 µM

SMILES: COP(=O)(N/N=C/C(=O)O)OC
- EC50: > 1260 µM
- IC50: > 1260 µM

SMILES: COC(=O)C(=O)C(/C=N/C(=S)N=Nc1c(O)[nH]c2ccccc12)=C(\O)c1c(C)[nH]c2ccccc12
- EC50: 26.9 µM
- IC50: 105 µM

SMILES: C=CCC1(C)CCCCC1(O)CS(=O)c1ccccc1 (stereo not given)
- outcome: inactive

SMILES: Cc1nnc2nc(N)[nH]n2c1=O
- EC50: > 200 µM
- IC50: > 200 µM

SMILES: CN(C)CC(C)(C)C(/C=C/c1ccccc1)=N\Nc1ccccc1
- outcome: inactive

SMILES: Cc1ccc(S(=O)(=O)N/N=C2\CC(C)OC3=C2CCCCCC3)cc1 (stereo not given)
- EC50: > 200 µM
- IC50: 33.9 µM

SMILES: COc1cc2nn(-c3ccccc3)nc2c2nonc12
- EC50: > 200 µM
- IC50: > 200 µM

SMILES: O=C1CC2C1C1C=CC2n2c(=O)n(-c3ccccc3)c(=O)n21 (stereo not given)
- EC50: > 224 µM
- IC50: > 224 µM

SMILES: CC1CC(C)(C)OC(c2ccco2)O1 (stereo not given)
- EC50: > 200 µM
- IC50: > 200 µM

SMILES: CCOC(=O)N1CCC2C(=C(C)C(C)C3=C2C(=O)c2ccccc2C3=O)C1 (stereo not given)
- EC50: > 100 µM
- IC50: > 100 µM
